What is called IC50 is the concentration that inhibits the measured activity by half.

Structures are written as SMILES.

The values below come from ChEMBL document CHEMBL5729666, “Substituted [1,2,4]triazolo[4,3-a]pyrazines as modulators of sodium channel activity” (2023).

The data set has as its target T1, Cytochrome P450 1A2 (Homo sapiens, UniProt P05177).
T1 sequence (P05177 whole entry): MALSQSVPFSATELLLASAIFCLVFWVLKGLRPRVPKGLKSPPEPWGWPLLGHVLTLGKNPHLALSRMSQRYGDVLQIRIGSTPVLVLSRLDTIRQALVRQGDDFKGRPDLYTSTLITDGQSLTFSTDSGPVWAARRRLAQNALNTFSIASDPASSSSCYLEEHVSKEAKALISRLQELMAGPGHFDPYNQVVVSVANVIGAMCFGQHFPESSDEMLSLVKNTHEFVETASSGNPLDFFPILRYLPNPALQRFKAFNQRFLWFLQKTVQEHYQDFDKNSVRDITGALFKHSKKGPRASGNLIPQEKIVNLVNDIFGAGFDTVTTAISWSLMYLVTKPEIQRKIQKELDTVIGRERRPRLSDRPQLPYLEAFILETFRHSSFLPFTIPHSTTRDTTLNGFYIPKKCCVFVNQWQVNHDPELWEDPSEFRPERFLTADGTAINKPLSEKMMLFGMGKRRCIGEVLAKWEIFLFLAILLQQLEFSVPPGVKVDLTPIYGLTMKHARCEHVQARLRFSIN
As to the kind of experiment: CYP1A2 Inhibition Assay: CYP1A2 Inhibition in Human Liver Microsomes. Pooled human liver microsomes were incubated with individual CYP, CYP1A2, isozyme-specific marker substrate (Phenacetin) in the presence of test compound at various concentrations (0.05, 0.15, 0.5, 1.5, 5, 15, 50 uM). The specific marker metabolites are measured with LC/MS/MS. The remaining enzymatic activities and inhibitory potency IC50 are determined. Procedure: Microsomes are removed out of the −80° C. freezer to thaw on ice and 20 μL of the substrates solution added to the corresponding wells. Then 20 μL PB was added to blank wells and 2 μL of the test compounds and positive control working solution added to the corresponding wells. 2 μL of solvent was added to No Inhibitor wells and Blank wells. Then 158 μL of the HLM working solution was added to all wells of the incubation plate. The plate was pre-warmed for about 10 min using a 37° C. water bath. Then 20 μL of the NADPH cofactor solution was added to all incubation wells, mixed and incubated for 10 minutes at 37° C. water bath. The reaction is terminated by adding 400 μL cold stop solution (200 ng/mL Tolbutamide and 200 ng/mL Labetalol in ACN). The samples were centrifuged at 4000 rpm for 20 minutes to precipitate protein. Finally 200 μL of the supernatant was transferred to 100 μL HPLC water, shaken for 10 min and analyzed by LC/MS/MS. A general note: Liver microsomes are a subcellular fraction often used to study metabolism.

For the compound `O=C(NNc1cnc(-c2ccc(OC(F)(F)F)cc2)cn1)C1(F)CC1`, the IC50 result was “in the range around 8 µM”.
As for `FC(F)(F)Oc1ccc(-c2ccc3nnc(C(F)(F)Cl)n3n2)cc1`, the IC50 is less than 1 µM.
